Target: SIK2 (Homo sapiens (Human), UniProt Q9H0K1)
Assay: SIK2 Enzymatic Assay Version 2 (High ATP)
Format: biochemical
Details: 3 mM ATP and 200 μM HDAC5tide final, ADP-Glo Max luminescence
In short: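 Luminescent ADP-Glo Max read-out: depletion reagent 2 h, then detection reagent 1 h. Before the reaction, compounds were incubated 30 min with enzyme added at 6 nM (twice final concentration), with all steps at room temperature.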

Sequence of SIK2 (Q9H0K1 whole entry, species assumed): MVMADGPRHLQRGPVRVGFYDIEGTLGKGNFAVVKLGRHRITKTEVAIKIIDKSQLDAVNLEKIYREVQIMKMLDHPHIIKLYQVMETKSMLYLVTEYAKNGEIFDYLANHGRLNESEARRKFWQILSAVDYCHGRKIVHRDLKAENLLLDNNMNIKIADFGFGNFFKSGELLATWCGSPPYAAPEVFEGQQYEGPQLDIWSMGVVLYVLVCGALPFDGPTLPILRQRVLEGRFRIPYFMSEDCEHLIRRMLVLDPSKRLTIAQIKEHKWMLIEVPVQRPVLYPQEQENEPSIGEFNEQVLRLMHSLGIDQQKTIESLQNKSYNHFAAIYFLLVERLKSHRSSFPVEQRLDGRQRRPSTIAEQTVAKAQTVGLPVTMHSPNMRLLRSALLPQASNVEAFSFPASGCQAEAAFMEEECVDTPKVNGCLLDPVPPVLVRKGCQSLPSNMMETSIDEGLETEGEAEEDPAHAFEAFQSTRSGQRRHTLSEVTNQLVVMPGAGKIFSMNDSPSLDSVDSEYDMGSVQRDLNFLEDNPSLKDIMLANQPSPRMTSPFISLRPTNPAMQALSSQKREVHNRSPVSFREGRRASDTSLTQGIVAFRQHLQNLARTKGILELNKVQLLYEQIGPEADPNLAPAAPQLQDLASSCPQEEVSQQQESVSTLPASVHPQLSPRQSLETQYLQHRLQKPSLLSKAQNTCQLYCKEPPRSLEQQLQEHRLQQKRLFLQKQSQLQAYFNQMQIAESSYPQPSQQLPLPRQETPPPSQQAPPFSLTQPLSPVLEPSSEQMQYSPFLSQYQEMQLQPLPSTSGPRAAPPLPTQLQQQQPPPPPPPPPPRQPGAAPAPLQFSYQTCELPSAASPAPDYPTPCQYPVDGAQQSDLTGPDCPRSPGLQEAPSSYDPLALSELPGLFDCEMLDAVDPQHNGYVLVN

Structure (SMILES) | IC50 [nM]
Cn1ncc(OCC2(c3ccccc3)CNC2)c1-c1ccn2nc(NC(=O)C3CC3)cc2c1 [Example 44, N-[5-[2-methyl-4-[(3-phenylazetidin-3-yl)methoxy]pyrazol-3-yl]pyrazolo[1,5-a]pyridin-2-yl]cyclopropanecarboxamide] | 17.6
Cc1cn2nc(Nc3cc4cc(-c5c(OC[C@H]6CCN6C)cnn5C)ccn4n3)ccc2n1 [Example 148, 2-methyl-N-[5-[2-methyl-4-[[(2R)-1-methylazetidin-2-yl]methoxy]pyrazol-3-yl]pyrazolo[1,5-a]pyridin-2-yl]imidazo[1,2-b]pyridazin-6-amine] | < 0.847
Cc1onc(OC[C@@H]2CCCCN2C)c1-c1ccn2nc(NC(=O)C3CC3)cc2c1 [Example 501, N-[5-[5-methyl-3-[[(2S)-1-methyl-2-piperidyl]methoxy]isoxazol-4-yl]pyrazolo[1,5-a]pyridin-2-yl]cyclopropanecarboxamide] | 355
Cc1onc(O[C@H]2CCNC2)c1-c1ccn2nc(NC(=O)C3CC3)cc2c1 [Example 75, N-[5-[5-methyl-3-[(3S)-pyrrolidin-3-yl]oxy-isoxazol-4-yl]pyrazolo[1,5-a]pyridin-2-yl]cyclopropanecarboxamide] | 35
CO[C@@H]1CN(C)C[C@@H]1Oc1cnn(C)c1-c1ccn2nc(NC(=O)C3CC3)cc2c1 (racemic) [Example 409, (rac-cis)-N-[5-[4-(4-methoxy-1-methyl-pyrrolidin-3-yl)oxy-2-methyl-pyrazol-3-yl]pyrazolo[1,5-a]pyridin-2-yl]cyclopropanecarboxamide] | 170
Cc1cc(Nc2cc3cc(-c4c(OC[C@@]5(F)CCNC5)cnn4C(F)F)ccn3n2)nc(C)n1 (single isomer, unassigned) [Example 262, (*R)-5-(1-(difluoromethyl)-4-((3-fluoropyrrolidin-3-yl)methoxy)-1H-pyrazol-5-yl)-N-(2,6-dimethylpyrimidin-4-yl)pyrazolo[1,5-a]pyridin-2-amine] | 4.7
Cc1onc(OC[C@@H](c2ccccc2F)N(C)C)c1-c1ccn2nc(NC(=O)C3CC3)cc2c1 [Example 222, N-[5-[3-[(2R)-2-(dimethylamino)-2-(2-fluorophenyl)ethoxy]-5-methyl-isoxazol-4-yl]pyrazolo[1,5-a]pyridin-2-yl]cyclopropanecarboxamide] | 27.5
Cn1ncc(OC2CCNCC2)c1-c1ccn2nc(NC(=O)C3CC3)cc2c1 [Example 407, N-[5-[2-methyl-4-(4-piperidyloxy)pyrazol-3-yl]pyrazolo[1,5-a]pyridin-2-yl]cyclopropanecarboxamide] | 86
Cc1cnc(Nc2cc3cc(-c4c(OC[C@H]5CCN5)cnn4C)ccn3n2)cn1 [Example 393, 5-[4-[[(2R)-azetidin-2-yl]methoxy]-2-methyl-pyrazol-3-yl]-N-(5-methylpyrazin-2-yl)pyrazolo[1,5-a]pyridin-2-amine] | 98.4
CN1CC[C@H](Oc2cnn(C)c2-c2ccn3nc(Nc4ccnc(C5CC5)n4)cc3c2)C1 [Example 281, N-(2-cyclopropylpyrimidin-4-yl)-5-[2-methyl-4-[(3S)-1-methylpyrrolidin-3-yl]oxy-pyrazol-3-yl]pyrazolo[1,5-a]pyridin-2-amine] | 29.1
CCN1CCC[C@@H]1COc1cnn(C)c1-c1ccn2nc(Nc3cc(C)nc(C)n3)cc2c1 [Example 289, N-(2,6-dimethylpyrimidin-4-yl)-5-[4-[[(2R)-1-ethylpyrrolidin-2-yl]methoxy]-2-methyl-pyrazol-3-yl]pyrazolo[1,5-a]pyridin-2-amine] | 1.4
CO[C@@H]1CNC[C@@H]1Oc1cnn(C)c1-c1ccn2nc(NC(=O)C3CC3)cc2c1 (single isomer, unassigned) [Example 40, N-(5-(4-(((3*S,4*R)-4-methoxypyrrolidin-3-yl)oxy)-1-methyl-1H-pyrazol-5-yl)pyrazolo[1,5-a]pyridin-2-yl)cyclopropanecarboxamide] | 444
CN1CC2(CCOCC2)[C@H]1COc1cnn(C)c1-c1ccn2nc(NC(=O)C3CC3)cc2c1 (single isomer, unassigned) [Example 59, (*S)—N-[5-[2-methyl-4-[(2-methyl-7-oxa-2-azaspiro[3.5]nonan-3-yl)methoxy]pyrazol-3-yl]pyrazolo[1,5-a]pyridin-2-yl]cyclopropanecarboxamide] | 690
CC(=O)CN1CC[C@@H]1COc1cnn(C)c1-c1ccn2nc(NC(=O)C3CC3)cc2c1 [Example 251, N-[5-[4-[[(2R)-1-acetonylazetidin-2-yl]methoxy]-2-methyl-pyrazol-3-yl]pyrazolo[1,5-a]pyridin-2-yl]cyclopropanecarboxamide] | 45.6
CN1CC[C@@H](COc2cnn(Cc3ccccc3)c2-c2ccn3nc(NC(=O)C4CC4)cc3c2)C1 [Example 491, N-[5-[2-benzyl-4-[[(3R)-1-methylpyrrolidin-3-yl]methoxy]pyrazol-3-yl]pyrazolo[1,5-a]pyridin-2-yl]cyclopropanecarboxamide] | > 50000
Cn1ncc(OCC2(N)CC2)c1-c1ccn2nc(NC(=O)C3CC3)cc2c1 [Example 506, N-[5-[4-[(1-aminocyclopropyl)methoxy]-2-methyl-pyrazol-3-yl]pyrazolo[1,5-a]pyridin-2-yl]cyclopropanecarboxamide] | 350

Structure (SMILES) | IC50 [nM]
CCN1CC[C@@H]1COc1cnn(C(F)F)c1-c1ccn2nc(Nc3ccnc(C)n3)cc2c1 [Example 477, 5-[2-(difluoromethyl)-4-[[(2R)-1-ethylazetidin-2-yl]methoxy]pyrazol-3-yl]-N-(2-methylpyrimidin-4-yl)pyrazolo[1,5-a]pyridin-2-amine] | 2.1
CCc1cc(Nc2cc3cc(-c4c(OC[C@@H]5CCN5CC)cnn4C)ccn3n2)nc(C)n1 [Example 169, 5-[4-[[(2S)-1-ethylazetidin-2-yl]methoxy]-2-methyl-pyrazol-3-yl]-N-(6-ethyl-2-methyl-pyrimidin-4-yl)pyrazolo[1,5-a]pyridin-2-amine] | 38.7
CN1CC[C@H](Oc2cnn(C)c2-c2ccn3nc(NC(=O)C4CC4)cc3c2)C1 [Example 105, N-[5-[2-methyl-4-[(3S)-1-methylpyrrolidin-3-yl]oxy-pyrazol-3-yl]pyrazolo[1,5-a]pyridin-2-yl]cyclopropanecarboxamide] | 43.1
CC(=O)N1CC[C@@H]1COc1cnn(C)c1-c1ccn2nc(NC(=O)C3CC3)cc2c1 [Example 56, N-[5-[4-[[(2R)-1-acetylazetidin-2-yl]methoxy]-2-methyl-pyrazol-3-yl]pyrazolo[1,5-a]pyridin-2-yl]cyclopropanecarboxamide] | 2500
Cc1onc(OCC2(C#N)CNC2)c1-c1ccn2nc(NC(=O)C3CC3)cc2c1 [Example 77, N-[5-[3-[(3-cyanoazetidin-3-yl)methoxy]-5-methyl-isoxazol-4-yl]pyrazolo[1,5-a]pyridin-2-yl]cyclopropanecarboxamide] | 12.9
Cc1onc(O[C@@H]2CN[C@@H]3CCCO[C@@H]32)c1-c1ccn2nc(NC(=O)C3CC3)cc2c1 [Example 227, (3R, 3aS, 7aR)—N-[5-[3-(1,2,3,3a,5,6,7,7a-octahydropyrano[3,2-b]pyrrol-3-yloxy)-5-methyl-isoxazol-4-yl]pyrazolo[1,5-a]pyridin-2-yl]cyclopropanecarboxamide] | 34.9
CN1CC[C@H](Oc2cnn(C)c2-c2ccn3nc(Nc4ccn5nccc5n4)cc3c2)C1 [Example 268, N-[5-[2-methyl-4-[(3S)-1-methylpyrrolidin-3-yl]oxy-pyrazol-3-yl]pyrazolo[1,5-a]pyridin-2-yl]pyrazolo[1,5-a]pyrimidin-5-amine] | 36.5
Cn1ncc(OC[C@H]2CNCCO2)c1-c1ccn2nc(NC(=O)C3CC3)cc2c1 [Example 6, N-[5-[2-methyl-4-[[(2R)-morpholin-2-yl]methoxy]pyrazol-3-yl]pyrazolo[1,5-a]pyridin-2-yl]cyclopropanecarboxamide] | 14
Cn1ncc(OC[C@@H]2CNC[C@H]2O)c1-c1ccn2nc(NC(=O)C3CC3)cc2c1 [Example 416, N-[5-[4-[[(3S,4S)-4-hydroxypyrrolidin-3-yl]methoxy]-2-methyl-pyrazol-3-yl]pyrazolo[1,5-a]pyridin-2-yl]cyclopropanecarboxamide] | 73.6
Cn1ncc(OC[C@H]2CCN2C2CC2)c1-c1ccn2nc(NC(=O)C3CC3)cc2c1 [Example 347, N-[5-[4-[[(2R)-1-cyclopropylazetidin-2-yl]methoxy]-2-methyl-pyrazol-3-yl]pyrazolo[1,5-a]pyridin-2-yl]cyclopropanecarboxamide] | 68
Cc1cc(Nc2cc3cc(-c4c(OC[C@H]5CCN5C)cnn4C(F)F)ccn3n2)nn(C)c1=O [Example 33, 6-[[5-[2-(difluoromethyl)-4-[[(2R)-1-methylazetidin-2-yl]methoxy]pyrazol-3-yl]pyrazolo[1,5-a]pyridin-2-yl]amino]-2,4-dimethyl-pyridazin-3-one] | 1.3
CC(C)c1nccc(Nc2cc3cc(-c4c(O[C@H]5CCN(C)C5)cnn4C)ccn3n2)n1 [Example 270, N-(2-isopropylpyrimidin-4-yl)-5-[2-methyl-4-[(3S)-1-methylpyrrolidin-3-yl]oxy-pyrazol-3-yl]pyrazolo[1,5-a]pyridin-2-amine] | 47.7
COC1CNC[C@@H]1Oc1noc(C)c1-c1ccn2nc(NC(=O)C3CC3)cc2c1 (single isomer, unassigned) [Example 202, N-(5-(3-(((3*S,4*R)-4-methoxypyrrolidin-3-yl)oxy)-5-methylisoxazol-4-yl)pyrazolo[1,5-a]pyridin-2-yl)cyclopropanecarboxamide] | 12.3
CCN1CC[C@@H]1COc1cnn(C)c1-c1ccn2nc(Nc3cnc(C)cn3)cc2c1 [Example 21, (R)-5-(4-((1-Ethylazetidin-2-yl)methoxy)-1-methyl-1H-pyrazol-5-yl)-N-(5-methylpyrazin-2-yl)pyrazolo[1,5-a]pyridin-2-amine] | 0.9
CCC1(OCc2cnn(C)c2-c2ccn3nc(NC(=O)C4CC4)cc3c2)CNC1 [Example 193, N-[5-[4-[(3-ethylazetidin-3-yl)oxymethyl]-2-methyl-pyrazol-3-yl]pyrazolo[1,5-a]pyridin-2-yl]cyclopropanecarboxamide] | 21.2
